{"source": "patent US6362360B1", "about": "“3-aryl-2-hydroxypropionic acid derivative III” (AstraZeneca AB, priority 1998, dated 2002)", "system": "obese diabetic mice of the Umeå ob/ob strain", "assay": "Biological activity in obese diabetic ob/ob mice (plasma glucose, insulin, triglycerides; weight gain)", "type": "in vivo", "procedure": "The biological activity of the compound of the invention was tested in obese diabetic mice of the Umeå ob/ob strain. Groups of mice received the test compound by gavage once daily for 7 days. On the last day of the experiment the animals were anesthetized 2 h after dose in a non-fed state and blood was collected from an incised artery. Plasma was analyzed for concentration of glucose, insulin and triglycerides. A group of untreated obese diabetic mice of the same age served as control. The weights of the mice were measured before and after the experiment and the obtained weight gains were compared to the weight gains of the control animals. The individual values for glucose, insulin and triglyceride levels of the mice from the test group were expressed as the percentage rage of the corresponding values from the control group. The desired “therapeutic effect” was calculated as the average percent reduction of the three variables glucose, insulin and triglycerides below the levels in the control animals. The therapeutic effect of the tested compounds according to the invention was compared to the same effect in the prior art compound troglitazone, administrered by gavage in the oral dose of 100 μmol/kg for 7 days."}
{"smiles": "CCO[C@@H](Cc1ccc(OCCc2ccc(NC(=O)OC(C)(C)C)cc2)cc1)C(=O)O", "note": "[compound of the invention, 3-{4-[2-(4-tert-Butoxycarbonylaminophenyl)ethoxy]phenyl}-(S)-2-ethoxy propanoic acid]", "values": [{"measurement": "therapeutic effect (average percent reduction of glucose, insulin and triglycerides below the levels in the control animals)", "setting": "gavage once daily for 7 days, compared to troglitazone in the same oral dose (100 μmol/kg for 7 days)", "result": "superior effects"}, {"measurement": "weight gain", "setting": "weights measured before and after the 7-day experiment, compared to control animals", "result": "without undesirable weight gain"}]}
